What was measured:
Type in all cases: in vivo
[1] = tested on: Lambsquarters; test: Greenhouse pot test, pre-emergence soil treatment, visual control effect 30 days after treatment, Gowing method
[2] = tested on: Abutilon; test: as above
Method: (§1) In the present application, indoor combined action of the compound of herbicide active component A and B on weeds was measured to determine the combined effect of the composition on weeds, wherein the structure of the active component A was as follows:
(§2) The weed cultivation method was as follows: quantitative weed seeds abutilon and bristlegrass were respectively sown in a paper cup filled with nutrient soil with a diameter of 7 cm, and then cultivated in the greenhouse after covering the soil, suppressing and watering. The post-emergence stem and leaf treatment was performed when the grass weeds grew to 5-7 leaf stage, broad-leaved weeds grew to 6-8 leaf stage; the pre-emergence soil treatment was performed the second day after sowing, and the early post-emergence treatment was performed after sowing and before emergence; the experiment was repeated 3 times. After the treatment and drug solution naturally dried, the weeds were placed in the greenhouse to be managed according to conventional methods. According to the suppression or death of the weeds, a visual control effect investigation was conducted 30 days after the treatment. The application adopted the Gowing method to evaluate the combined effect of the proposed composition.
(§3) X—Weed control effect when the amount of herbicide component A is P;
(§4) Y—Weed control effect when the amount of herbicide component B is Q;
(§5) E0—Theoretical control effect when the amount of herbicide component A is […];
(§6) E—The measured control effect after the herbicide component A and the herbicide component B are mixed according to the above ratio.
(§7) When E−E0>10%, it is synergism; when E−E0<−10%, it is antagonism; when E−E0 value is between ±10%, it is addition.

[3] = tested on: Bristlegrass; test: as above
Method: as §1, §2, §3, §4, §5, §6, §7

[4] = tested on: Abutilon; test: Greenhouse pot test (treatment timing not given, Table 6), visual control effect, Gowing method
Method: as §1, §2, §3, §4, §5, §6, §7

[5] = tested on: Abutilon; test: Greenhouse pot test, post-emergence stem and leaf treatment, visual control effect 30 days after treatment, Gowing method
Method: as §1, §2, §3, §4, §5, §6, §7

[6] = tested on: Bristlegrass; test: as above
Method: as §1, §2, §3, §4, §5, §6, §7

[7] = tested on: goosegrass (collected from Zhengzhou, Henan); test: Example 13 combined effect on weeds, Gowing method
Method: (§8) The weed cultivation and test material cultivation method was as follows: quantitative weed seeds abutilon and bristlegrass were respectively sown in a paper cup filled with nutrient soil with a diameter of 7 cm, and then cultivated in the greenhouse after covering the soil, suppressing and watering. The stem and leaf spray treatment was performed when the grass weeds grew to 5-7 leaf stage, and broad-leaved weeds grew to 6-8 leaf stage; the tests were repeated for 3 times. the treatment and drug solution naturally dried, the weeds were placed in the greenhouse to be managed according to conventional methods. According to the suppression or death of the weeds, a visual control effect investigation was conducted 30 days after the treatment.
(§9) The application adopted the Gowing method to evaluate the combined effect of the proposed composition.
as §3, §4, §5, §6, §7
(§10) The test targets were horseweed herb collected from Shenyang, Liaoning and goosegrass collected from Zhengzhou, Henan.

[8] = tested on: Horseweed herb (collected from Shenyang, Liaoning); test: Example 13 combined effect on weeds, Gowing method
Method: as §8, §9, §3, §4, §5, §6, §7, §10

[9] = tested on: Amaranthusretroflexus; test: Greenhouse pot test (treatment timing not given, Table 7), visual control effect, Gowing method
[10] = tested on: Abutilon; test: Example 15 indoor pot planting, death rate / herbicidal speed, weeds in 6-leaf stage
Method: (§11) The death rate of weeds after application of the herbicidal composition of the present application was measured and compared with the herbicidal rate when a single component was used. The test used the method of indoor pot planting. At the time of treatment, abutilon and barnyardgrass were in 6-leaf stage.

[11] = tested on: Echinochloacrusgalli; test: as above
Method: as §11

[12] = tested on: Bristlegrass; test: Greenhouse pot test (treatment timing not given, Tables 6 and 7), visual control effect, Gowing method
Method: as §1, §2, §3, §4, §5, §6, §7

[13] = tested on: Eclipta alba; test: Greenhouse pot test, pre-emergence soil treatment, visual control effect 30 days after treatment, Gowing method
[14] = tested on: Abutilon; test: Example 12 indoor pot experiment, stem and leaf spray, visual control effect 30 days after treatment, Gowing method
Method: (§12) The combined effect of the composition on the weeds was clarified by the indoor pot experiment.
as §8, §9, §3, §4, §5, §6, §7

[15] = tested on: Bristlegrass; test: as above
Method: as §12, §8, §9, §3, §4, §5, §6, §7

[16] = tested on: Amaranthusretroflexus; test: Field plot test, non-cultivated weeds, pre-emergence soil treatment; conditions: Table 8, dose 600 ga.i./hm^2
Method: (§13) The present application also conducted a medicinal efficacy test on weeds on the formulation examples containing herbicide active component A and active component B by the field plot test method, and clarified the control effect of the composition on non-cultivated weeds.
(§14) According to the different components of different formulation examples, pre-emergence soil treatment, early post-emergence and post-emergence stem and leaf spray treatment were carried out respectively. The spraying device was Singapore Linong HD400 hand-operating knapsack sprayer (No. H17001), working pressure: […], spray rate: 640 mL/min, adjustable cone spraying nozzle (325787), spraying nozzle height: 0.5 m, spray width: 0.85 m, walking speed: about 16.7 m/min, and spray volume: […];

[17] = tested on: Lambsquarters; test: as above; conditions: Table 8, dose 600 ga.i./hm^2
Method: as §13, §14

[18] = tested on: Bristlegrass; test: as above; conditions: Table 8, dose 600 ga.i./hm^2
Method: as §13, §14

[19] = tested on: Crabgrass; test: as above; conditions: Table 8, dose 600 ga.i./hm^2
Method: as §13, §14

[20] = Example 13 Table 2, dose 3.75 ga.i./hm^2
[21] = Example 13 Table 2, dose 7.5 ga.i./hm^2
[22] = Example 13 Table 2, dose 15 ga.i./hm^2
[23] = Example 13 Table 2, dose 30 ga.i./hm^2
[24] = Table 11, 7 days after treatment, dose 15 ga.i./hm^2
[25] = Table 11, 7 days after treatment, dose 30 ga.i./hm^2
[26] = Table 11, 7 days after treatment, dose 60 ga.i./hm^2
[27] = Table 11, 7 days after treatment, dose 120 ga.i./hm^2
[28] = Table 11, 15 days after treatment, dose 15 ga.i./hm^2
[29] = Table 11, 15 days after treatment, dose 30 ga.i./hm^2
[30] = Table 11, 15 days after treatment, dose 60 ga.i./hm^2
[31] = Table 11, 15 days after treatment, dose 120 ga.i./hm^2
[32] = Table 11, 30 days after treatment, dose 15 ga.i./hm^2
[33] = Table 11, 30 days after treatment, dose 30 ga.i./hm^2
[34] = Table 11, 30 days after treatment, dose 60 ga.i./hm^2
[35] = Table 11, 30 days after treatment, dose 120 ga.i./hm^2
[36] = Example 12 Table 1, dose 3.75 ga.i./hm^2
[37] = Example 12 Table 1, dose 7.5 ga.i./hm^2
[38] = Example 12 Table 1, dose 15 ga.i./hm^2
[39] = Example 12 Table 1, dose 30 ga.i./hm^2

## CCOC(=O)C1(C)CC(c2cc(-n3c(=O)cc(C(F)(F)F)n(C)c3=O)c(F)cc2Cl)=NO1 (stereo not shown) [active component A, 3-(2-chloro-4-fluoro-5-(3-methyl-2,6-dioxo-4-trifluoromethyl-3,6-dihydropyrimidine-1(2H)-yl)phenyl)-5-methyl-4,5-dihydroisoxazole-5-carboxylic acid ethyl ester]
[1]; Table 1, dose 7.5 ga.i./hm^2
  Measured value E: 5%
[1]; Table 1, dose 15 ga.i./hm^2
  Measured value E: 20%
[1]; Table 2, dose 15 ga.i./hm^2
  Measured value E: 15%
[1]; Table 2, dose 22.5 ga.i./hm^2
  Measured value E: 25%
[2]; Table 4, dose 15 ga.i./hm^2
  Measured value E: 5%
[2]; Table 4, dose 30 ga.i./hm^2
  Measured value E: 20%
[3]; Table 1, dose 7.5 ga.i./hm^2
  Measured value E: 0%
[3]; Table 1, dose 15 ga.i./hm^2
  Measured value E: 15%
[3]; Table 2, dose 15 ga.i./hm^2
  Measured value E: 10%
[3]; Table 2, dose 22.5 ga.i./hm^2
  Measured value E: 25%
[3]; Table 3, dose 7.5 ga.i./hm^2
  Measured value E: 0%
[3]; Table 3, dose 15 ga.i./hm^2
  Measured value E: 10%
[3]; Table 4, dose 15 ga.i./hm^2
  Measured value E: 10%
[3]; Table 4, dose 30 ga.i./hm^2
  Measured value E: 15%
[4]; dose 15 ga.i./hm^2
  Measured value E: 35%
[4]; dose 60 ga.i./hm^2
  Measured value E: 45%
[5]; Table 5, dose 7.5 ga.i./hm^2
  Measured value E: 10%
[5]; Table 5, dose 15 ga.i./hm^2
  Measured value E: 15%
[6]; Table 5, dose 7.5 ga.i./hm^2
  Measured value E: 5%
[6]; Table 5, dose 15 ga.i./hm^2
  Measured value E: 10%
[7]; [20]
  Measured value E: 5%
[7]; [21]
  Measured value E: 15%
[7]; [22]
  Measured value E: 30%
[7]; [23]
  Measured value E: 45%
[8]; [20]
  Measured value E: 10%
[8]; [21]
  Measured value E: 30%
[8]; [22]
  Measured value E: 35%
[8]; [23]
  Measured value E: 55%
[9]; dose 15 ga.i./hm^2
  Measured value E: 20%
[9]; dose 30 ga.i./hm^2
  Measured value E: 65%
[10]; [24]
  Control effect (visual observation %): 46.0%
[10]; [25]
  Control effect (visual observation %): 68.1%
[10]; [26]
  Control effect (visual observation %): 82.4%
[10]; [27]
  Control effect (visual observation %): 94.3%
[10]; [28]
  Control effect (visual observation %): 54.0%
[10]; [29]
  Control effect (visual observation %): 62.4%
[10]; [30]
  Control effect (visual observation %): 93.8%
[10]; [31]
  Control effect (visual observation %): 100%
[10]; [32]
  Control effect (visual observation %): 38.6%
[10]; [33]
  Control effect (visual observation %): 57.3%
[10]; [34]
  Control effect (visual observation %): 100%
[10]; [35]
  Control effect (visual observation %): 100%
[11]; [24]
  Control effect (visual observation %): 16.6%
[11]; [25]
  Control effect (visual observation %): 18.0%
[11]; [26]
  Control effect (visual observation %): 31.0%
[11]; [27]
  Control effect (visual observation %): 34.3%
[11]; [28]
  Control effect (visual observation %): 18.4%
[11]; [29]
  Control effect (visual observation %): 19.8%
[11]; [30]
  Control effect (visual observation %): 36.7%
[11]; [31]
  Control effect (visual observation %): 40.7%
[11]; [32]
  Control effect (visual observation %): 20.9%
[11]; [33]
  Control effect (visual observation %): 43.2%
[11]; [34]
  Control effect (visual observation %): 32.9%
[11]; [35]
  Control effect (visual observation %): 42.5%
[12]; Table 6, dose 15 ga.i./hm^2
  Measured value E: 10%
[12]; Table 6, dose 60 ga.i./hm^2
  Measured value E: 35%
[12]; Table 7, dose 15 ga.i./hm^2
  Measured value E: 20%
[12]; Table 7, dose 30 ga.i./hm^2
  Measured value E: 50%
[13]; Table 3, dose 7.5 ga.i./hm^2
  Measured value E: 0%
[13]; Table 3, dose 15 ga.i./hm^2
  Measured value E: 10%
[14]; [36]
  Measured value E: 10%
[14]; [37]
  Measured value E: 25%
[14]; [38]
  Measured value E: 40%
[14]; [39]
  Measured value E: 55%
[15]; [36]
  Measured value E: 5%
[15]; [37]
  Measured value E: 10%
[15]; [38]
  Measured value E: 15%
[15]; [39]
  Measured value E: 25%

## CCc1cccc(C)c1N(C(=O)CCl)C(C)COC (stereo not shown) [metolachlor]
[1]; Table 2, dose 90 ga.i./hm^2
  Measured value E: 50%
[1]; Table 2, dose 135 ga.i./hm^2
  Measured value E: 55%
[3]; Table 2, dose 90 ga.i./hm^2
  Measured value E: 40%
[3]; Table 2, dose 135 ga.i./hm^2
  Measured value E: 60%
[16]
  Control effect, Amaranthusretroflexus: 60
[17]
  Control effect, Lambsquarters: 50
[18]
  Control effect, Bristlegrass: 45
[19]
  Control effect, Crabgrass: 60
